Assay results taken from US8247211B2, “Glycopeptide antibiotics” (American Cyanamid Company, priority 2001, dated 2012).

Columns and labels:
[1] = test system: Enterococcus faecalis (GC 6189), vancomycin resistant strain; experiment: Acute lethal infection in mice (ED50); type: in vivo; conditions: female CD-1 mice, intraperitoneal challenge, intravenous dose 30 min. after infection, 7 day survival ratios
How it was run: (§1)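 Female CD-1 mice (20 ± 1-2 g) were infected intraperitoneally with enough bacteria, suspended in Trypticase Soy Broth or hog gastric mucin, to kill untreated controls within 24-48 hr. Compound in saline or 5% dextrose was given intravenously 30 min after infection. ED50 came from pooled 7-day survival over 3 tests.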

[2] = test system: Streptococcus pneumoniae (GC 1894), penicillin resistant strain; experiment: Acute lethal infection in mice (ED50); type: in vivo; conditions: female CD-1 mice, intraperitoneal challenge, intravenous dose 30 min. after infection, 7 day survival ratios
How it was run: as §1

[3] = test system: Staphylococcus aureus-SMITH (GC 4543); experiment: Acute lethal infection in mice (ED50); type: in vivo; conditions: female CD-1 mice, intraperitoneal challenge, intravenous dose 30 min. after infection, 7 day survival ratios
How it was run: as §1

Streptococcus sp. = experiment: In vitro antibacterial evaluation: minimum inhibitory concentration (MIC), broth dilution method; type: cell-based; conditions: broth dilution, 18 hours at 35° C.
How it was run: (§2)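 Broth dilution per NCCLS M7-A2 in Muller-Hinton II […], inoculum 5×10^5 CFU/mL, antibiotic tested over 64-0.06 μg/mL. MIC is taken as the lowest concentration that inhibits growth. Panel includes recent clinical isolates resistant to methicillin, penicillin and/or vancomycin.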

Staphylococcus sp. = experiment: as above; type: cell-based; conditions: for MIC Staphylococcus aureus (ATCC 29213): strain ATCC 29213; for MIC Staphylococcus aureus (GC 3051): strain GC 3051; for MIC Staphylococcus aureus (GC 3053): strain GC 3053; for MIC Staphylococcus aureus (GC 4541): strain GC 4541; for MIC Staphylococcus aureus (GC 4542): strain GC 4542; for MIC Staphylococcus aureus (GC 4545): strain GC 4545; for MIC Staphylococcus haemolyticus (GC 4546): strain GC 4546; for MIC Coagulase Negative Staphylococcus (GC 4547): strain GC 4547; for MIC Coagulase Negative Staphylococcus (GC 4548): strain GC 4548; for MIC Coagulase Negative Staphylococcus (GC 4549): strain GC 4549; for MIC Coagulase Negative Staphylococcus (GC 4551): strain GC 4551; for MIC Coagulase Negative Staphylococcus (GC 6257): strain GC 6257
How it was run: as §2

Enterococcus sp. = experiment: as above; type: cell-based; conditions: broth dilution, 18 hours at 35° C.
How it was run: as §2

Escherichia coli = experiment: as above; type: cell-based; conditions: 5×10^5 CFU/mL, 18 hours at 35° C.
How it was run: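 An MIC is reported for each organism as the least concentration giving inhibition, using broth dilution over 64-0.06 μg/mL with a 5×10^5 CFU/mL inoculum.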

[4] = type: in vivo; conditions: mice, 20 mg/kg intravenously daily for 9 days, serum on day 10
Protocol: 20-day-old CD-1 mice were divided into a vehicle control group (5 mice) and a treatment group (5 mice). Samples of glycopeptide antibiotics were administered at 20 mg/kg intravenously daily for 9 days. Animals were necropsied on day 10 Sera were analyzed for BUN (blood urea nitrogen), creatinine, AST (aspartic aminotransferase), and ALT (alanine aminotransferase) by routine, standard, automated methods using an Hitachi 747 chemistry analyzer.

[5] = Anatomic pathology (heart and kidney histopathology) in mice; type: in vivo, CD-1 mice; conditions: 20 mg/kg intravenously daily for 9 days, microscopic histopathology on day 10
How it was run: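 Juvenile CD-1 mice (20 days old; 5 vehicle, 5 treated) received glycopeptide antibiotic 20 mg/kg i.v. daily for 9 days. Necropsied tissues formalin-fixed, paraffin-embedded, H&E stained and examined microscopically; findings graded slight to severe versus controls.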

[6] = broth dilution, 18 hours at 35° C.

CC(c1ccccc1)C1NC(=O)CNC(=O)C(CO)NC(=O)C(C(O)C2CNC(=N)N2C2OC(CO)C(O)C(O)C2O)NC(=O)C(C(O)C2CNC(=N)N2)NC(=O)C(Cc2ccc(OC3OC(CO)C(OC4OC5COC6(OC5C(O)C4O)C4CC5CC(C4)CC6C5)C(O)C3O)cc2)NC1=O (stereo not drawn) [Example 105, Cyclo[glycyl-β-methylphenylalanyl-O-[4-O-[4,6-O-(2-adamantylidene)hexopyranosyl]hexopyranosyl]tyrosyl-3-(2-iminoimidazolidin-4-yl)seryl-3-(3-hexopyranosyl-2-iminoimidazoliclin-4-yl)serylseryl]]
+205%: Clinical Chemistry (Day 10) % of Control, AST [4]
<0.06 to 0.12 µg/mL: MIC Streptococcus pyogenes (GC 4563) (Streptococcus sp.; Streptococcus pyogenes (GC 4563)) | MIC Streptococcus pyogenes (GC 4563) (Streptococcus sp.; 5×10^5 CFU/mL)
+++: Anatomical Pathology (Day 10), Heart [5] | Anatomical Pathology (Day 10), Kidney [5]
0.5 to 1 µg/mL: MIC Staphylococcus aureus (GC 3051) (Staphylococcus sp.) | MIC Staphylococcus aureus (GC 3051) (Staphylococcus sp.; [6]) | MIC Staphylococcus aureus (GC 4542) (Staphylococcus sp.) | MIC Staphylococcus aureus (GC 4542) (Staphylococcus sp.; [6]) | MIC Coagulase Negative Staphylococcus (GC 4547) (Staphylococcus sp.) | MIC Coagulase Negative Staphylococcus (GC 4547) (Staphylococcus sp.; [6]) | MIC Coagulase Negative Staphylococcus (GC 4549) (Staphylococcus sp.) | MIC Coagulase Negative Staphylococcus (GC 4549) (Staphylococcus sp.; [6]) | MIC Coagulase Negative Staphylococcus (GC 6257) (Staphylococcus sp.) | MIC Coagulase Negative Staphylococcus (GC 6257) (Staphylococcus sp.; [6])
1 to 2 µg/mL: MIC Staphylococcus aureus (GC 3053) (Staphylococcus sp.) | MIC Staphylococcus aureus (GC 3053) (Staphylococcus sp.; [6]) | MIC Enterococcus avium (GC 4558) (Enterococcus sp.; Enterococcus avium (GC 4558)) | MIC Enterococcus faecalis (ATCC 29212) (Enterococcus sp.; Enterococcus faecalis (ATCC 29212)) | MIC Enterococcus faecalis (GC 2691) (Enterococcus sp.; Enterococcus faecalis (GC 2691)) | MIC Enterococcus faecalis (GC 3059) (Enterococcus sp.; Enterococcus faecalis (GC 3059)) | MIC Enterococcus faecalis (GC 4552) (Enterococcus sp.; Enterococcus faecalis (GC 4552)) | MIC Enterococcus faecalis (GC 4553) (Enterococcus sp.; Enterococcus faecalis (GC 4553)) | MIC Enterococcus faecalis (GC 4554) (Enterococcus sp.; Enterococcus faecalis (GC 4554)) | MIC Enterococcus faecalis (GC 6189) (Enterococcus sp.; Enterococcus faecalis (GC 6189)) | MIC Enterococcus faecium (GC 2243) (Enterococcus sp.; Enterococcus faecium (GC 2243)) | MIC Enterococcus faecium (GC 4557) (Enterococcus sp.; Enterococcus faecium (GC 4557)) | MIC Enterococccus avium (GC 4558) (Enterococcus sp.; 5×10^5 CFU/mL) | MIC Enterococccus faecalis (ATCC 29212) (Enterococcus sp.; 5×10^5 CFU/mL) | MIC Enterococccus faecalis (GC 2691) (Enterococcus sp.; 5×10^5 CFU/mL) | MIC Enterococccus faecalis (GC 3059) (Enterococcus sp.; 5×10^5 CFU/mL) | MIC Enterococccus faecalis (GC 4552) (Enterococcus sp.; 5×10^5 CFU/mL) | MIC Enterococccus faecalis (GC 4553) (Enterococcus sp.; 5×10^5 CFU/mL) | MIC Enterococccus faecalis (GC 4554) (Enterococcus sp.; 5×10^5 CFU/mL) | MIC Enterococccus faecalis (GC 6189) (Enterococcus sp.; 5×10^5 CFU/mL) | MIC Enterococccus faecium (GC 2243) (Enterococcus sp.; 5×10^5 CFU/mL) | MIC Enterococccus faecium (GC 4557) (Enterococcus sp.; 5×10^5 CFU/mL)
+35%: Clinical Chemistry (Day 10) % of Control, BUN [4]
<0.5 to 1 µg/mL: MIC Staphylococcus aureus (ATCC 29213) (Staphylococcus sp.) | MIC Staphylococcus aureus (ATCC 29213) (Staphylococcus sp.; [6]) | MIC Staphylococcus aureus (GC 4541) (Staphylococcus sp.) | MIC Staphylococcus aureus (GC 4541) (Staphylococcus sp.; [6]) | MIC Staphylococcus aureus (GC 4545) (Staphylococcus sp.) | MIC Staphylococcus aureus (GC 4545) (Staphylococcus sp.; [6]) | MIC Staphylococcus haemolyticus (GC 4546) (Staphylococcus sp.) | MIC Staphylococcus haemolyticus (GC 4546) (Staphylococcus sp.; [6]) | MIC Coagulase Negative Staphylococcus (GC 4548) (Staphylococcus sp.) | MIC Coagulase Negative Staphylococcus (GC 4548) (Staphylococcus sp.; [6]) | MIC Coagulase Negative Staphylococcus (GC 4551) (Staphylococcus sp.) | MIC Coagulase Negative Staphylococcus (GC 4551) (Staphylococcus sp.; [6])
1.8-1.96: median effective dose (ED50), Enterococcus faecalis (GC 6189) [1]
16 to 32 µg/mL: MIC Escherichia coli (ATCC 25922) (Escherichia coli)
32 µg/mL: MIC Escherichia coli (GC 4559) (Escherichia coli)
<0.06 µg/mL: MIC Streptococcus pneumoniae (ATCC 6301) (Streptococcus sp.; Streptococcus pneumoniae (ATCC 6301)) | MIC Streptococcus pneumoniae (GC 1894) (Streptococcus sp.; Streptococcus pneumoniae (GC 1894)) | MIC Streptococcus pneumoniae (GC 4565) (Streptococcus sp.; Streptococcus pneumoniae (GC 4565)) | MIC Streptococcus pneumoniae (GC 1894) (Streptococcus sp.; 5×10^5 CFU/mL) | MIC Streptococcus pneumoniae (GC 4565) (Streptococcus sp.; 5×10^5 CFU/mL) | MIC Streptococcus pneumonine (ATCC 6301) (Streptococcus sp.; 5×10^5 CFU/mL)
<0.06 to 0.25 µg/mL: MIC Streptococcus agalactiae (GC 4564) (Streptococcus sp.; Streptococcus agalactiae (GC 4564)) | MIC Streptococcus agalactiae (GC 4564) (Streptococcus sp.; 5×10^5 CFU/mL)
0.04 mg/kg: median effective dose (ED50), Streptococcus pneumoniae (GC 1894) [2]
+480%: Clinical Chemistry (Day 10) % of Control, ALT [4]
0.5 to 2 µg/mL: MIC Enterococcus faecalis (GC 2242) (Enterococcus sp.; Enterococcus faecalis (GC 2242)) | MIC Enterococcus faecium (GC 4556) (Enterococcus sp.; Enterococcus faecium (GC 4556)) | MIC Enterococccus faecium (GC 4556) (Enterococcus sp.; 5×10^5 CFU/mL) | MIC Enterococcus faecalis (GC 2242) (Enterococcus sp.; 5×10^5 CFU/mL) | MIC Escherichia coli (GC 4560) (Escherichia coli)
0.04-0.08: median effective dose (ED50), Staphylococcus aureus-SMITH (GC 4543) [3]
